Measured values from ChEMBL document CHEMBL4145553, “Design, synthesis, and biological evaluation of novel amide and hydrazide based thioether analogs targeting Histone deacteylase (HDAC) enzymes” (Eur J Med Chem, 2018).
Activity calls are given as the source filed them. No cut-off for these calls is given here.

Tests used:
SK-MEL-2 = assay: Growth inhibition of human SK-MEL-2 cells assessed as cell growth at 10^-8 M incubated for 48 hrs by sulforhodamine B assay relative to control; assay type: functional; settings: SK-MEL-2, 48 h, read-out: Activity
CCRF-CEM [1] = assay: Growth inhibition of human CCRF-CEM cells assessed as cell growth at 10^-6 M incubated for 48 hrs by sulforhodamine B assay relative to control; assay type: functional; settings: read-out: Activity
MDA-MB-231 [2] = assay: Growth inhibition of human MDA-MB-231 cells assessed as cell growth at 10^-6 M incubated for 48 hrs by sulforhodamine B assay relative to control; assay type: functional; settings: MDA-MB-231, 48 h, read-out: Activity
HL-60(TB) = assay: Growth inhibition of human HL-60(TB) cells assessed as cell growth at 10^-4 M incubated for 48 hrs by sulforhodamine B assay relative to control; assay type: functional; settings: HL-60, 48 h, read-out: Activity
SR [3] = assay: Growth inhibition of human SR cells incubated for 48 hrs by sulforhodamine B assay; assay type: functional
NCI-H226 = assay: Growth inhibition of human NCI-H226 cells at 10 uM incubated for 48 hrs by sulforhodamine B assay relative to control; assay type: functional; settings: NCI-H226, 48 h, values are per cent of control
NCI-H23 = assay: Growth inhibition of human NCI-H23 cells at 10 uM incubated for 48 hrs by sulforhodamine B assay relative to control; assay type: functional; settings: NCI-H23, 48 h, values are per cent of control
SN12C = assay: Growth inhibition of human SN12C cells at 10 uM incubated for 48 hrs by sulforhodamine B assay relative to control; assay type: functional; settings: values are per cent of control
CAKI-1 = assay: Growth inhibition of human Caki1 cells at 10 uM incubated for 48 hrs by sulforhodamine B assay relative to control; assay type: functional; settings: CAKI-1, 48 h, values are per cent of control
ACHN = assay: Growth inhibition of human ACHN cells at 10 uM incubated for 48 hrs by sulforhodamine B assay relative to control; assay type: functional; settings: values are per cent of control
786-0 = assay: Growth inhibition of human 786-0 cells at 10 uM incubated for 48 hrs by sulforhodamine B assay relative to control; assay type: functional; settings: 786-0, 48 h, values are per cent of control
SK-OV-3 = assay: Growth inhibition of human SKOV3 cells at 10 uM incubated for 48 hrs by sulforhodamine B assay relative to control; assay type: functional; settings: SK-OV-3, 48 h, values are per cent of control
UO-31 = assay: Growth inhibition of human UO31 cells at 10 uM incubated for 48 hrs by sulforhodamine B assay relative to control; assay type: functional; settings: UO-31, 48 h, values are per cent of control
MDA-MB-231 [4] = assay: Growth inhibition of human MDA-MB-231 cells at 10 uM incubated for 48 hrs by sulforhodamine B assay relative to control; assay type: functional; settings: MDA-MB-231, 48 h, values are per cent of control
Hs-578T = assay: Growth inhibition of human Hs 578T cells at 10 uM incubated for 48 hrs by sulforhodamine B assay relative to control; assay type: functional; settings: values are per cent of control
BT-549 = assay: Growth inhibition of human BT549 cells at 10 uM incubated for 48 hrs by sulforhodamine B assay relative to control; assay type: functional; settings: BT-549, 48 h, values are per cent of control
T47D = assay: Growth inhibition of human T47D cells at 10 uM incubated for 48 hrs by sulforhodamine B assay relative to control; assay type: functional; settings: values are per cent of control
HL-60 = assay: Cell cycle arrest in human HL60 cells assessed as accumulation at S-phase by propidium iodide staining based flow cytometry (reference value: 24.9%); assay type: functional
MDA-MB-435 = assay: Downregulation of HDAC8 mRNA expression in human MDA-MB-435 cells by qRT-PCR method; assay type: functional, cell-based
SR [5] = assay: Growth of human SR cells at 10 uM incubated for 48 hrs by sulforhodamine B assay relative to control
K562 = assay: Growth of human K562 cells at 10 uM incubated for 48 hrs by sulforhodamine B assay relative to control; settings: K562, 48 h
EKVX = assay: Growth of human EKVX cells at 10 uM incubated for 48 hrs by sulforhodamine B assay relative to control
SF-539 = assay: Growth of human SF539 cells at 10 uM incubated for 48 hrs by sulforhodamine B assay relative to control; settings: SF-539, 48 h
SW-620 = assay: Growth of human SW620 cells at 10 uM incubated for 48 hrs by sulforhodamine B assay relative to control; settings: SW-620, 48 h
HT-29 = assay: Growth of human HT-29 cells at 10 uM incubated for 48 hrs by sulforhodamine B assay relative to control; settings: HT-29, 48 h
HOP-62 = assay: Growth of human HOP62 cells at 10 uM incubated for 48 hrs by sulforhodamine B assay relative to control; settings: HOP-62, 48 h
OVCAR-4 = assay: Growth of human OVCAR4 cells at 10 uM incubated for 48 hrs by sulforhodamine B assay relative to control; settings: OVCAR-4, 48 h
IGROV-1 = assay: Growth of human IGROV1 cells at 10 uM incubated for 48 hrs by sulforhodamine B assay relative to control; settings: IGROV-1, 48 h
HCT-116 = assay: Growth of human HCT116 cells at 10 uM incubated for 48 hrs by sulforhodamine B assay relative to control; settings: HCT-116, 48 h
LOX IMVI = assay: Growth of human LOXIMVI cells at 10 uM incubated for 48 hrs by sulforhodamine B assay relative to control
HCC 2998 = assay: Growth of human HCC2998 cells at 10 uM incubated for 48 hrs by sulforhodamine B assay relative to control; settings: HCC 2998, 48 h
COLO 205 = assay: Growth of human COLO205 cells at 10 uM incubated for 48 hrs by sulforhodamine B assay relative to control; settings: COLO 205, 48 h
SK-MEL-5 = assay: Growth of human SK-MEL-5 cells at 10 uM incubated for 48 hrs by sulforhodamine B assay relative to control; settings: SK-MEL-5, 48 h
CCRF-CEM [6] = assay: Growth of human CCRF-CEM cells at 10 uM incubated for 48 hrs by sulforhodamine B assay relative to control
[7] = read-out: LC50 (the source's name)
[8] = read-out: pLC50 (the source's name) (converted)

Row | SMILES | growth at 0.01 µM (SK-MEL-2) | growth at 1 µM (CCRF-CEM [1]) | growth at 1 µM (MDA-MB-231 [2]) | growth at 100 µM (HL-60(TB)) | GI50 (SR [3]; read-out: GI50) | CC50 (SR [3]; [7]) | TGI (SR [3]; read-out: TGI) | GI50 (SR [3]; read-out: pGI50 (converted)) | CC50 (SR [3]; [8]) | TGI (SR [3]; read-out: pTGI) | growth, % of control at 10 µM (NCI-H226) | growth, % of control at 10 µM (NCI-H23) | growth, % of control at 10 µM (SN12C) | growth, % of control at 10 µM (CAKI-1) | growth, % of control at 10 µM (ACHN) | growth, % of control at 10 µM (786-0) | growth, % of control at 10 µM (SK-OV-3) | growth, % of control at 10 µM (UO-31) | growth, % of control at 10 µM (MDA-MB-231 [4]) | growth, % of control at 10 µM (Hs-578T) | other results
1 | CCS/C(Nc1ccccc1)=C(\C#N)C(=O)N/N=C\c1ccc(Cl)cc1Cl | 106% | 82% | 89% | 5% | 3.45 µM | > 100 µM | > 100 µM | 3.47 µM | > 100 µM | > 100 µM | 37.7% | 41.3% | 34.5% | 31.5% | 38.2% | 31.8% | 15.5% | 41.9% | 39% | -6.44% | growth, % of control at 10 µM (BT-549): 45.4%; growth, % of control at 10 µM (T47D): 17.8%; Activity (HL-60): 13.18%; Activity (MDA-MB-435): Active; growth, % of control at 10 µM (SR [5]): 19.5%; growth, % of control at 10 µM (K562): 7.35%; growth, % of control at 10 µM (EKVX): 47.4%; growth, % of control at 10 µM (SF-539): 4.25%; growth, % of control at 10 µM (SW-620): 18.6%; growth, % of control at 10 µM (HT-29): 9.53%; growth, % of control at 10 µM (HOP-62): 36.7%; growth, % of control at 10 µM (OVCAR-4): 56.5%; growth, % of control at 10 µM (IGROV-1): 49.1%; growth, % of control at 10 µM (HCT-116): 17.5%; growth, % of control at 10 µM (LOX IMVI): 34.4%; growth, % of control at 10 µM (HCC 2998): 48.4%; growth, % of control at 10 µM (COLO 205): 28.4%; growth, % of control at 10 µM (SK-MEL-5): 12.4%; growth, % of control at 10 µM (CCRF-CEM [6]): 9.86%
2 | CCS/C(Nc1ccccc1)=C(\C#N)C(=O)Nc1ccc(OC)cc1 | 106% | 64% | 93% | 2% | 1.54 µM | > 100 µM | > 100 µM | 1.55 µM | > 100 µM | > 100 µM | 57.9% | 48.3% | 37.8% | 40.4% | 51.9% | 39.5% | 22.4% | 50% | 44.5% | 27.4% | growth, % of control at 10 µM (BT-549): 40.5%; growth, % of control at 10 µM (T47D): 25.4%; Activity (HL-60): 15.51%; Activity (MDA-MB-435): Active; growth, % of control at 10 µM (SR [5]): 6.62%; growth, % of control at 10 µM (K562): 7.34%; growth, % of control at 10 µM (EKVX): 52.4%; growth, % of control at 10 µM (SF-539): 29.1%; growth, % of control at 10 µM (SW-620): 17.9%; growth, % of control at 10 µM (HT-29): 6.46%; growth, % of control at 10 µM (HOP-62): 34.2%; growth, % of control at 10 µM (OVCAR-4): 66.7%; growth, % of control at 10 µM (IGROV-1): 55.7%; growth, % of control at 10 µM (HCT-116): 14.3%; growth, % of control at 10 µM (LOX IMVI): 36.6%; growth, % of control at 10 µM (HCC 2998): 55.2%; growth, % of control at 10 µM (COLO 205): 17.5%; growth, % of control at 10 µM (SK-MEL-5): 17.8%; growth, % of control at 10 µM (CCRF-CEM [6]): 8.29%
